{"source": "paper PMC8908738", "about": "(2022)", "key": {"[1]": {"system": "5'ATP aptamer-bridge (DNA, aptamer) CTAGCGAGCGAACTTTACCTGGGGGAGTATTGCGGAGGAAGGT", "experiment": "CD of origami-AuNR probe, single concentration", "details": "5 mM Mg2+, PBS, room temperature, overnight, up to 1 mM"}, "[2]": {"system": "5'ATP aptamer-bridge (DNA, aptamer) CTAGCGAGCGAACTTTACCTGGGGGAGTATTGCGGAGGAAGGT", "experiment": "CD of origami-AuNR probe, competitive hybridization, ATP concentration varied", "details": "5 mM Mg2+, PBS, room temperature, overnight, ATP 1 μM to 1 mM, displaced 5'ATPCS9 (n = 9)"}, "[3]": {"system": "5'ATP aptamer-bridge (DNA, aptamer) CTAGCGAGCGAACTTTACCTGGGGGAGTATTGCGGAGGAAGGT", "experiment": "CD of origami-AuNR probe, competitive hybridization, complementary strand length varied", "details": "5 mM Mg2+, PBS, room temperature, overnight, 1 mM ATP, displaced 5'ATPCS9-12, R^2 0.96"}, "[4]": {"system": "5'glucose aptamer-bridge (DNA, aptamer) CTAGCGAGCGAACTTTACGACCGTGTGTGTTGCTCTGTAACAGTGTCCATTGTCGT", "experiment": "CD of origami-AuNR probe, competitive hybridization, complementary strand length varied", "details": "5 mM Mg2+, PBS, room temperature, overnight, 100 mM glucose, displaced 5'gluCS8-12, R^2 0.99"}, "[5]": {"system": "5'glucose aptamer-bridge (DNA, aptamer) CTAGCGAGCGAACTTTACGACCGTGTGTGTTGCTCTGTAACAGTGTCCATTGTCGT", "experiment": "CD of origami-AuNR probe, single concentration", "details": "5 mM Mg2+, PBS, room temperature, overnight, up to 100 mM fructose, displaced 5' strand n = 10"}}, "data": [{"compound": "Nc1ccn([C@@H]2O[C@H](COP(=O)(O)OP(=O)(O)OP(=O)(O)O)[C@@H](O)[C@H]2O)c(=O)n1", "values": [{"measurement": "binding", "setting": "[1]; displaced 5'ATPCS9, CD change 2.1% (ATP 53.7%)", "value": "no"}]}, {"compound": "Nc1nc2c(ncn2[C@@H]2O[C@H](COP(=O)(O)OP(=O)(O)OP(=O)(O)O)[C@@H](O)[C@H]2O)c(=O)[nH]1", "values": [{"measurement": "binding", "setting": "[1]; displaced 5'ATPCS9, CD change 3.6% (ATP 53.7%)", "value": "no"}]}, {"compound": "Nc1ncnc2c1ncn2[C@@H]1O[C@H](COP(=O)(O)OP(=O)(O)OP(=O)(O)O)[C@@H](O)[C@H]1O", "values": [{"measurement": "KD2^ATP", "setting": "[2]", "value": "4.54 ± 0.580", "unit": "µM"}, {"measurement": "KD2^ATP", "setting": "[3]", "value": "5.71 ± 0.865", "unit": "µM"}]}, {"compound": "OC[C@H]1OC(O)[C@H](O)[C@@H](O)[C@@H]1O", "note": "(stereo partly drawn)", "values": [{"measurement": "KD2^glu", "setting": "[4]", "value": "5.57 ± 0.436", "unit": "mM"}]}, {"compound": "OCC1(O)OC[C@@H](O)[C@@H](O)[C@@H]1O", "note": "(stereo partly drawn)", "values": [{"measurement": "binding", "setting": "[5]", "value": "no"}]}]}
